Measurements: ChEMBL document CHEMBL5506074, “Discovery and Optimization of Tetrahydroisoquinoline Derivatives To Enhance Lysosome Biogenesis as Preclinical Candidates for the Treatment of Alzheimer's Disease” (J Med Chem, 2024)
Each block holds one compound with its values, some of them ahead of it. Active and inactive are the calls of the source. No cut-off for these calls is given here.

Assays:
[1] = Induction of TFEB nuclear translocation in human HeLa cells expressing EGFP at 30 uM measured at 3 hrs by fluorescence microscopic analysis; type: functional
HeLa [2] = test: Induction of lysosome biogenesis in human HeLa cells assessed as increase in number of acidified lysosomes at 10 uM incubated for 24 hrs by LysiTracker red staining based flow cytometry analysis; type: functional, cell-based
[3] = Induction of TFEB nuclear translocation in human HeLa cells expressing EGFP at 30 uM measured at 6 hrs by fluorescence microscopic analysis; type: functional
[4] = Induction of TFEB nuclear translocation in human HeLa cells expressing EGFP at 10 uM measured at 6 hrs by fluorescence microscopic analysis; type: functional
[5] = Induction of TFEB nuclear translocation in human HeLa cells expressing EGFP at 10 uM measured at 3 hrs by fluorescence microscopic analysis; type: functional
HeLa [6] = test: Upregulation of LAMP1 mRNA expression in human HeLa cells at 10 uM incubated for 24 hrs by qRT-PCR analysis; type: functional, cell-based
HeLa [7] = test: Upregulation of OPTN mRNA expression in human HeLa cells at 10 uM incubated for 24 hrs by qRT-PCR analysis; type: functional, cell-based
[8] = Volume of distribution at steady state in ICR mouse measured upto 24 hrs by LC-MS/MS analysis; type: ADME; conditions: in vivo, read-out: Vdss
HeLa [9] = test: Upregulation of HEXA mRNA expression in TFEB knockout human HeLa cells at 10 uM incubated for 24 hrs by qRT-PCR analysis; type: functional, cell-based
HeLa [10] = test: Upregulation of CTSD mRNA expression in TFEB knockout human HeLa cells at 10 uM incubated for 24 hrs by qRT-PCR analysis; type: functional, cell-based
HeLa [11] = test: Upregulation of LAMP1 mRNA expression in TFEB knockout human HeLa cells at 10 uM incubated for 24 hrs by qRT-PCR analysis; type: functional, cell-based
SH-SY5Y = test: Cytotoxicity against human SH-SY5Y cells assessed as effect on cell viability at 10 uM incubated for 24 hrs; type: functional, cell-based
HeLa [12] = test: Upregulation of GLA mRNA expression in TFEB knockout human HeLa cells at 10 uM incubated for 24 hrs by qRT-PCR analysis; type: functional, cell-based
HeLa [13] = test: Upregulation of CTSF mRNA expression in TFEB knockout human HeLa cells at 10 uM incubated for 24 hrs by qRT-PCR analysis; type: functional, cell-based
HeLa [14] = test: Induction of cell cycle arrest in human HeLa cells assessed as effect on CDK4 level at 10 uM incubated for 12 hrs by qRT-PCR analysis; type: functional, cell-based
HeLa [15] = test: Induction of cell cycle arrest in human HeLa cells assessed as effect on p21 level at 10 uM incubated for 12 hrs by qRT-PCR analysis; type: functional, cell-based
HeLa [16] = test: Upregulation of Atg16L1 mRNA expression in human HeLa cells at 10 uM incubated for 24 hrs by qRT-PCR analysis; type: functional, cell-based
HeLa [17] = test: Upregulation of Atg16L1 mRNA expression in TFEB knockout human HeLa cells at 10 uM incubated for 24 hrs by qRT-PCR analysis; type: functional, cell-based
HeLa [18] = test: Upregulation of p62 mRNA expression in TFEB knockout human HeLa cells at 10 uM incubated for 24 hrs by qRT-PCR analysis; type: functional, cell-based
HeLa [19] = test: Upregulation of UVRAG mRNA expression in TFEB knockout human HeLa cells at 10 uM incubated for 24 hrs by qRT-PCR analysis; type: functional, cell-based
[20] = AUC (0 to t) in ICR mouse at 5 mg/kg, iv measured upto 24 hrs by LC-MS/MS analysis; type: ADME, organism-based; conditions: ICR, in vivo
HeLa [21] = test: Cytotoxicity against human HeLa cells assessed as effect on cell viability at 10 uM incubated for 24 hrs; type: functional, cell-based
HeLa [22] = test: Induction of cell cycle arrest in human HeLa cells assessed as effect on LAMP1 level at 10 uM incubated for 12 hrs by qRT-PCR analysis; type: functional, cell-based
HeLa [23] = test: Upregulation of LC3B mRNA expression in human HeLa cells at 10 uM incubated for 24 hrs by qRT-PCR analysis; type: functional, cell-based
[24] = target: Cyclin-dependent kinase 9 (Homo sapiens) (UniProt P50750); test: Inhibition of CDK9 in human SH-SY5Y cells assessed as decrease in Rpb1 phosphorylation at 10 uM incubated for 6 hrs by immunoblotting analysis; type: cell-based
Cyclin-dependent kinase 9 (Homo sapiens), sequence (P50750 whole entry): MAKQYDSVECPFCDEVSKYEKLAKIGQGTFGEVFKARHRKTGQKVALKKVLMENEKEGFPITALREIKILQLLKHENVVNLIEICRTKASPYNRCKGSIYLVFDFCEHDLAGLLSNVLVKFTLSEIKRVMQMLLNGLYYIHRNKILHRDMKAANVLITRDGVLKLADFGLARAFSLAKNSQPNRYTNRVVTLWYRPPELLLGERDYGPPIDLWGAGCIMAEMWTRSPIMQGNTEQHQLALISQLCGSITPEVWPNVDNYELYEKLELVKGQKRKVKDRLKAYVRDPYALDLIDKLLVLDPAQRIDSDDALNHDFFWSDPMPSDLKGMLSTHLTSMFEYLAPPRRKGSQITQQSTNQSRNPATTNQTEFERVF

HeLa [25] = test: Upregulation of ATG2A mRNA expression in human HeLa cells at 10 uM incubated for 24 hrs by qRT-PCR analysis; type: functional, cell-based
HeLa [26] = test: Upregulation of CTSF mRNA expression in human HeLa cells at 10 uM incubated for 24 hrs by qRT-PCR analysis; type: functional, cell-based
HeLa [27] = test: Upregulation of […] mRNA expression in TFEB knockout human HeLa cells at 10 uM incubated for 24 hrs by qRT-PCR analysis; type: functional, cell-based
[28] = tested on: Primary neocortical neuron; test: Cytotoxicity against mouse Primary neocortical neuron cells assessed as effect on cell viability at 10 uM incubated for 24 hrs; type: functional, cell-based
HeLa [29] = test: Upregulation of GLA mRNA expression in human HeLa cells at 10 uM incubated for 24 hrs by qRT-PCR analysis; type: functional, cell-based
HeLa [30] = test: Upregulation of CTSD mRNA expression in human HeLa cells at 10 uM incubated for 24 hrs by qRT-PCR analysis; type: functional, cell-based
HeLa [31] = test: Upregulation of ATG2A mRNA expression in TFEB knockout human HeLa cells at 10 uM incubated for 24 hrs by qRT-PCR analysis; type: functional, cell-based
HeLa [32] = test: Upregulation of LC3B mRNA expression in TFEB knockout human HeLa cells at 10 uM incubated for 24 hrs by qRT-PCR analysis; type: functional, cell-based
HeLa [33] = test: Upregulation of HEXA mRNA expression in human HeLa cells at 10 uM incubated for 24 hrs by qRT-PCR analysis; type: functional, cell-based
HeLa [34] = test: Upregulation of OPTN mRNA expression in TFEB knockout human HeLa cells at 10 uM incubated for 24 hrs by qRT-PCR analysis; type: functional, cell-based
HeLa [35] = test: Upregulation of […] mRNA expression in human HeLa cells at 10 uM incubated for 24 hrs by qRT-PCR analysis; type: functional, cell-based
HeLa [36] = test: Upregulation of p62 mRNA expression in human HeLa cells at 10 uM incubated for 24 hrs by qRT-PCR analysis; type: functional, cell-based
HeLa [37] = test: Upregulation of UVRAG mRNA expression in human HeLa cells at 10 uM incubated for 24 hrs by qRT-PCR analysis; type: functional, cell-based
HeLa [38] = test: Induction of cell cycle arrest in human HeLa cells assessed as effect on CDK7 level at 10 uM incubated for 12 hrs by qRT-PCR analysis; type: functional, cell-based
[39] = Bioavailability in ICR mouse at 5 mg/kg, ip measured upto 24 hrs by LC-MS/MS analysis; type: ADME, organism-based; conditions: in vivo
[40] = AUC (0 to t) in ICR mouse at 20 mg/kg, po measured upto 24 hrs by LC-MS/MS analysis; type: ADME, organism-based; conditions: ICR, in vivo
[41] = Half life in ICR mouse at 20 mg/kg, po measured upto 24 hrs by LC-MS/MS analysis; type: ADME, organism-based; conditions: in vivo
[42] = Half life in ICR mouse at 10 mg/kg, ip measured upto 24 hrs by LC-MS/MS analysis; type: ADME, organism-based; conditions: in vivo
[43] = Tmax in ICR mouse at 20 mg/kg, po measured upto 24 hrs by LC-MS/MS analysis; type: ADME, organism-based; conditions: in vivo
[44] = Oral bioavailability in ICR mouse at 20 mg/kg measured upto 24 hrs by LC-MS/MS analysis; type: ADME, organism-based; conditions: ICR, in vivo
[45] = Ratio of drug concentration in ICR mouse brain to plasma at 10 mg/kg, ip measured upto 24 hrs by LC-MS/MS analysis; type: ADME, organism-based; conditions: brain and plasma, read-out: BPR
[46] = Cmax in ICR mouse at 10 mg/kg, ip measured upto 24 hrs by LC-MS/MS analysis; type: ADME, organism-based; conditions: in vivo
[47] = Tmax in ICR mouse at 10 mg/kg, ip measured upto 24 hrs by LC-MS/MS analysis; type: ADME, organism-based; conditions: in vivo
[48] = AUC (0 to t) in ICR mouse at 10 mg/kg, ip measured upto 24 hrs by LC-MS/MS analysis; type: ADME, organism-based; conditions: in vivo
[49] = Cmax in ICR mouse at 20 mg/kg, po measured upto 24 hrs by LC-MS/MS analysis; type: ADME, organism-based; conditions: in vivo
[50] = Clearance in ICR mouse at 5 mg/kg, iv measured upto 24 hrs by LC-MS/MS analysis; type: ADME, organism-based; conditions: in vivo
[51] = Ratio of drug concentration in ICR mouse brain to plasma at 5 mg/kg, iv measured upto 24 hrs by LC-MS/MS analysis; type: ADME, organism-based; conditions: brain and plasma, read-out: BPR

Compound: CC(C)N1CCc2cc3c(cc2C1CCc1c[nH]c2ccccc12)OCO3 (stereo not drawn)
- Activity [1]: 70%
- Activity (HeLa [2]): Active
- Activity [3]: 75%
- Activity [4]: 33%
- Activity [5]: 22%

- Vd [8]: 97.5 L/kg
- AUC(0-t) at 24 h [20]: 21.5 ng·h/mL
- inhibition [24]: Active
Compound: COc1ccc2[nH]cc(CCC3c4cc(OC)c(OC)cc4CCN3CC3CCOCC3)c2c1 (stereo not drawn)
- Activity (HeLa [6]): Active
- Activity (HeLa [7]): Active
- Activity [1]: 96%
- Activity (HeLa [9]): Active
- Activity (HeLa [10]): Active
- Activity (HeLa [11]): Active
- Activity (SH-SY5Y): Active
- Activity (HeLa [12]): Active
- Activity (HeLa [13]): Active
- Activity (HeLa [14]): inactive
- Activity (HeLa [15]): inactive
- Activity (HeLa [16]): Active
- Activity (HeLa [17]): Active
- Activity (HeLa [18]): Active
- Activity (HeLa [19]): Active
- Activity (HeLa [21]): Active
- Activity (HeLa [22]): inactive
- Activity (HeLa [23]): Active
- Activity (HeLa [25]): Active
- Activity (HeLa [26]): Active
- Activity (HeLa [2]): Active
- Activity [3]: 98%
- Activity [4]: 76%
- Activity [5]: 74%
- Activity (HeLa [27]): Active
- Activity [28]: Active
- Activity (HeLa [29]): Active
- Activity (HeLa [30]): Active
- Activity (HeLa [31]): Active
- Activity (HeLa [32]): Active
- Activity (HeLa [33]): Active
- Activity (HeLa [34]): Active
- Activity (HeLa [35]): Active
- Activity (HeLa [36]): Active
- Activity (HeLa [37]): Active
- Activity (HeLa [38]): inactive

- bioavailability [39]: 50.4%
- AUC(0-t) at 24 h [40]: 16.3 ng·h/mL
- Vd [8]: 8.66 L/kg
- half-life [41]: 216 min
- half-life [42]: 58.2 min
- Tmax [43]: 25.2 min
- bioavailability [44]: 0.67%
- Kp at 24 h [45]: 1.9
- AUC(0-t) at 24 h [20]: 604 ng·h/mL
- Cmax [46]: 620 ng/mL
- Tmax [47]: 10.8 min
- AUC(0-t) at 24 h [48]: 609 ng·h/mL
- Cmax [49]: 9.14 ng/mL
- clearance [50]: 140 mL/min/kg
- Kp at 24 h [51]: 2.2
Compound: COc1cc2c(cc1OC)C(CCc1c[nH]c3ccccc13)N(CC1CCOCC1)CC2 (stereo not drawn)
- Activity (HeLa [6]): Active
- Activity (HeLa [7]): Active
- Activity [1]: 85%
- Activity (HeLa [9]): Active
- Activity (HeLa [10]): Active
- Activity (HeLa [11]): Active
- Activity (HeLa [12]): Active
- Activity (HeLa [13]): Active
- Activity (HeLa [16]): Active
- Activity (HeLa [17]): Active
- Activity (HeLa [18]): Active
- Activity (HeLa [19]): Active
- Activity (HeLa [23]): Active
- Activity (HeLa [25]): Active
- Activity (HeLa [26]): Active
- Activity (HeLa [2]): Active
- Activity [3]: 85%
- Activity [4]: 47%
- Activity [5]: 27%
- Activity (HeLa [27]): Active
- Activity (HeLa [29]): Active
- Activity (HeLa [30]): Active
- Activity (HeLa [31]): Active
- Activity (HeLa [32]): Active
- Activity (HeLa [33]): Active
- Activity (HeLa [34]): Active
- Activity (HeLa [35]): Active
- Activity (HeLa [36]): Active
- Activity (HeLa [37]): Active
